From patent US12570687B2, “Triterpenoid compounds, pharmaceutical compositions thereof, and their use for treating a nuclear receptor subfamily 4 group a member 1-mediated disease” (NUCMITO PHARMACEUTICALS COMPANY LIMITED, priority 2019, dated 2026) come the findings set out here.

The structures appear in SMILES notation. Where only a bound is given, the exact number is not on record here.

What all share (type): cell-based
One experiment deals with HeLa (ovarian cancer). The experiment can be described thus: MTT antiproliferative assay, HeLa. As to conditions: Homo sapiens, 48 or 72 h, read-out: inhibition of cell growth, HELA. The method, then: (§1) The antiproliferative activity of a test compound was determined in cell lines: MDA-MB-231 (breast cancer), HepG2 (liver cancer), SW620 (colon cancer), A375 (malignant melanoma), A431 (epidermoid carcinoma), A549 (lung adenocarcinoma), and HeLa ([…]). MDA-MB-231, HepG2, SW480, SW620, A375, and A431 cells were cultured in Dulbecco's modified Eagle's medium (DMEM) containing 10% fetal bovine serum (FBS). HeLa cells were cultured in MEM/EBSS (MEM) containing 10% FBS. A549 cells were maintained in Kaighn's modification of Ham's F-12 medium containing 10% FBS. The colorimetric MTT (3-(4,5-dimethylthiazol-2-yl)-2,5-diphenyltetrazolium bromide) assay was used to measure the cell viability of different cells following treatment with the test compound.
(§2) Briefly cells were seeded in a 96 well plate at a density of 2,000-5,000 cells/well. Following attachment, the cells were treated with the test compound in media at various concentrations ranging from 0.137 to 100 μM or at a single concentration of 10 μM. After the cells were incubated at 37° C. for 48 or 72 h, MTT (20 μL, 5 mg/mL in PBS) was added to each well and the cells were incubated for another 4 h at 37° C. The supernatant was removed carefully and 150 μL of DMSO was added to each well to dissolve the MTT formazan crystals. The plate was shaken for 15-20 min and the absorbance value of each well was determined using a multi-well plate reader at 490 nm. The wells treated with DMSO were taken as a vehicle control. Data were also obtained similarly for all the replicates and the percentage viability was determined with respect to the DMSO-treated cells. The results are summarized in Table 1 below, wherein A represents no less than 80% inhibition of cell growth at 10 μM; B represents no less than 50% but less than 80% inhibition of cell growth at 10 μM; C represents no less than 30% but less than 50% inhibition of cell growth at 10 μM; and D represents less than 30% inhibition of cell growth at 10 μM.
(In general: Tetrazolium dyes change colour on reduction, which living cells bring about.)

Experiment [1] deals with A375 (malignant melanoma). The experiment in a line: MTT antiproliferative assay, A375. Conditions: Homo sapiens, A-375, A375, 10 μM, 48 or 72 h, read-out: inhibition of cell growth, A375. The method, then: as §1, §2
In experiment [2] the test system is A549 (lung adenocarcinoma). The experiment in a line: MTT antiproliferative assay, A549. As to conditions: Homo sapiens, A549, 10 μM, 48 or 72 h, read-out: inhibition of cell growth, A549. The method, then: as §1, §2
A further experiment deals with HepG2 (liver cancer). The experiment can be described thus: MTT antiproliferative assay, HepG2. As to conditions: Homo sapiens, HepG2, 10 μM, 48 or 72 h, read-out: inhibition of cell growth, HepG2. The method, then: as §1, §2
In the next experiment the test system is SW620 (colon cancer). The experiment in a line: MTT antiproliferative assay, SW620. Conditions: Homo sapiens, SW-620, SW620, 10 μM, 48 or 72 h, read-out: inhibition of cell growth, SW620. The method, then: as §1, §2
In experiment [3] the test system is MDA-MB-231 (breast cancer). The experiment in a line: MTT antiproliferative assay, MDA-MB-231. As to conditions: Homo sapiens, MDA-MB-231, 10 μM, 48 or 72 h, read-out: inhibition of cell growth, MDA-MB-231. The method, then:
as §1, §2

The test system of experiment [4] is A431 (epidermoid carcinoma). The experiment can be described thus: MTT antiproliferative assay, A431. Conditions: Homo sapiens, A-431, A431, 10 μM, 48 or 72 h, read-out: inhibition of cell growth, A431. The protocol: as §1, §2

Consider `COC(=O)[C@]1(C)CC[C@]2(C)CC[C@]3(C)C4=CC=C5C(=CC(=O)/C(=C\C#N)C5(C)O)[C@]4(C)CC[C@@]3(C)[C@@H]2C1` (stereo partly drawn) [Compound A33, methyl (2R,4aS,6aS,10Z,12bR,14aS,14bR)-10-(cyanomethylidene)-9-hydroxy-2,4a,6a,9,12b,14a-hexamethyl-11-oxo-1,2,3,4,4a,5,6,6a,9,10,11,12b,13,14,14a,14b-hexadecahydropicene-2-carboxylate], for which the inhibition at 10 µM in the experiment with HeLa (ovarian cancer) was at least 80%; in experiment [1], 50 to 80%; in experiment [2], 30 to 50%; with HepG2 (liver cancer), at least 80%; with SW620 (colon cancer), at least 80%; in experiment [3], at least 80%. Besides, the inhibition at 10 µM in experiment [4] was in the range of 50 to 80%.

In the case of `CO[C@@]1(C)C2=CC=C3[C@@](C)(CC[C@@]4(C)[C@@H]5C[C@](C)(C(=O)N6CCOCC6)CC[C@]5(C)CC[C@]34C)C2=CC(=O)[C@@H]1O` [Compound A56, (3R,4S,6bS,8aS,11R,12aR,12bS,14aR)-3-hydroxy-4-methoxy-4,6b,8a,11,12b,14a-hexamethyl-11-(morpholine-4-carbonyl)-4,6b,7,8,8a,9,10,11,12,12a,12b,13,14,14a-tetradecahydropicen-2(3H)-one], the inhibition at 10 µM in the experiment on HeLa (ovarian cancer) is 50 to 80%; in experiment [1], 30 to 50%; in experiment [2], at least 80%; with HepG2 (liver cancer) it was at least 80%; with SW620 (colon cancer), at least 80%; in experiment [3], 50 to 80%. Moreover, the inhibition at 10 µM in experiment [4] is at least 80%.

As for `CO[C@]1(C)C(=O)C(=O)C=C2C1=CC=C1[C@@]2(C)CC[C@@]2(C)[C@@H]3C[C@](C)(C(=O)OCc4ccccc4)CC[C@]3(C)CC[C@]12C` [Compound A11, benzyl (2R,4aS,6aS,9S,12bR,14aS,14bR)-9-methoxy-2,4a,6a,9,12b,14a-hexamethyl-10,11-dioxo-1,2,3,4,4a,5,6,6a,9,10,11,12b,13,14,14a,14b-hexadecahydropicene-2-carboxylate], the inhibition at 10 µM is at least 80% in the experiment on HeLa (ovarian cancer); 50 to 80% in experiment [1]; below 30% in experiment [2]; at least 80% in the experiment with HepG2 (liver cancer); at least 80% with SW620 (colon cancer); at least 80% in experiment [3]. The inhibition at 10 µM in experiment [4] was below 30%.

As to `CO[C@@]1(C)C2=CC=C3[C@@](C)(CC[C@@]4(C)[C@@H]5C[C@](C)(C(=O)O)CC[C@]5(C)CC[C@]34C)C2=CC(=O)[C@@H]1O` [Compound A15, (2R,4aS,6aS,9S,10R,12bR,14aS,14bR)-10-hydroxy-9-methoxy-2,4a,6a,9,12b,14a-hexamethyl-11-oxo-1,2,3,4,4a,5,6,6a,9,10,11,12b,13,14,14a,14b-hexadecahydropicene-2-carboxylic acid], the inhibition at 10 µM in the experiment on HeLa (ovarian cancer) was 50 to 80%; in experiment [1], 50 to 80%; in experiment [2], below 30%; with HepG2 (liver cancer), 30 to 50%; in the experiment with SW620 (colon cancer) it was 30 to 50%; in experiment [3] it was at least 80%. For the same compound, the inhibition at 10 µM in experiment [4] fell in the range of 50 to 80%.

On to `CO[C@@]1(C)C2CCC3[C@@](C)(CC[C@@]4(C)[C@@H]5C[C@](C)(C(=O)O)CC[C@]5(C)CC[C@]34C)C2=CC(=O)[C@@H]1O` (stereo partly drawn) [Compound A21, (2R,4aS,6aR,9S,10R,12bR,14aS,14bR)-10-hydroxy-9-methoxy-2,4a,6a,9,12b,14a-hexamethyl-11-oxo-1,2,3,4,4a,5,6,6a,6b,7,8,8a,9,10,11,12b,13,14,14a,14b-icosahydropicene-2-carboxylic acid], for which the inhibition at 10 µM (in the experiment on HeLa (ovarian cancer); in experiment [1]; in experiment [2]; with HepG2 (liver cancer); in the experiment with SW620 (colon cancer); in experiment [3]) was below 30% each time. The inhibition at 10 µM in experiment [4] was below 30%.

Take `CO[C@]1(C)C(=O)C(=O)C=C2C1=CC=C1[C@@]2(C)CC[C@@]2(C)[C@@H]3C[C@](C)(CO)CC[C@]3(C)CC[C@]12C` [Compound A14, (4S,6bS,8aS,11R,12aR,12bS,14aR)-11-(hydroxymethyl)-4-methoxy-4,6b,8a,11,12b,14a-hexamethyl-4,6b,7,8,8a,9,10,11,12,12a,12b,13,14,14a-tetradecahydropicene-2,3-dione]: the inhibition at 10 µM was 30 to 50% in the experiment with HeLa (ovarian cancer); below 30% in experiment [1]; below 30% in experiment [2]; below 30% with HepG2 (liver cancer); below 30% in the experiment with SW620 (colon cancer); below 30% in experiment [3]. Besides, the inhibition at 10 µM in experiment [4] is below 30%.

Consider `CO[C@@]1(C)C2=CC=C3[C@@](C)(CC[C@@]4(C)[C@@H]5C[C@](C)(C(=O)O)CC[C@]5(C)CC[C@]34C)C2=CC2(O)OCCN=C21` (stereo partly drawn) [Compound A46, (2R,4aS,6aS,9S,14bR,16aS,16bR)-13a-hydroxy-9-methoxy-2,4a,6a,9,14b,16a-hexamethyl-2,3,4,4a,5,6,6a,9,11,12,13a,14b,15,16,16a,16b-hexadecahydro-1H-piceno[2,3-b][1,4]oxazine-2-carboxylic acid], for which the inhibition at 10 µM in the experiment on HeLa (ovarian cancer) was at least 80%; in experiment [1], 30 to 50%; in experiment [2], 50 to 80%; with HepG2 (liver cancer) it was at least 80%; in the experiment with SW620 (colon cancer) it was 50 to 80%; in experiment [3], 50 to 80%. Moreover, the inhibition at 10 µM in experiment [4] is at least 80%.

On to `CO[C@]1(C)C(=O)C(=O)C=C2C1=CC=C1[C@@]2(C)CC[C@@]2(C)[C@@H]3C[C@](C)(C(=O)NO)CC[C@]3(C)CC[C@]12C` [Compound A45, (2R,4aS,6aS,9S,12bR,14aS,14bR)—N-Hydroxy-9-methoxy-2,4a,6a,9,12b,14a-hexamethyl-10,11-dioxo-1,2,3,4,4a,5,6,6a,9,10,11,12b,13,14,14a,14b-hexadecahydropicene-2-carboxamide], for which the inhibition at 10 µM in the experiment on HeLa (ovarian cancer) was at least 80%; in experiment [1] it was 50 to 80%; in experiment [2], at least 80%; in the experiment on HepG2 (liver cancer) it was at least 80%; with SW620 (colon cancer) it was 50 to 80%; in experiment [3], at least 80%. Moreover, in experiment [4], the inhibition at 10 µM was at least 80%.

Consider `CO[C@]1(C)C(=O)C(=O)C=C2C1=CC=C1[C@@]2(C)CC[C@@]2(C)[C@@H]3C[C@](C)(C(=O)N(C)C)CC[C@]3(C)CC[C@]12C` [Compound A13, (2R,4aS,6aS,9S,12bR,14aS,14bR)-9-methoxy-N,N,2,4a,6a,9,12b,14a-octamethyl-10,11-dioxo-1,2,3,4,4a,5,6,6a,9,10,11,12b,13,14,14a,14b-hexadecahydropicene-2-carboxamide], for which the inhibition at 10 µM in the experiment with HeLa (ovarian cancer) is at least 80%; in experiment [1], 30 to 50%; in experiment [2], at least 80%; in the experiment with HepG2 (liver cancer), at least 80%; in the experiment with SW620 (colon cancer) it was at least 80%; in experiment [3] it was at least 80%. Further, the inhibition at 10 µM in experiment [4] was at least 80%.

Turning to `CNC(=O)[C@]1(C)CC[C@]2(C)CC[C@]3(C)C4=CC=C5C(=CC(=O)[C@H](O)[C@@]5(C)OC)[C@]4(C)CC[C@@]3(C)[C@@H]2C1` [Compound A17, (2R,4aS,6aS,9S,10R,12bR,14aS,14bR)-10-hydroxy-9-methoxy-N,2,4a,6a,9,12b,14a-heptamethyl-11-oxo-1,2,3,4,4a,5,6,6a,9,10,11,12b,13,14,14a,14b-hexadecahydropicene-2-carboxamide], the inhibition at 10 µM was 50 to 80% in the experiment with HeLa (ovarian cancer); 50 to 80% in experiment [1]; 30 to 50% in experiment [2]; at least 80% in the experiment on HepG2 (liver cancer); at least 80% in the experiment with SW620 (colon cancer); at least 80% in experiment [3]. In experiment [4], the inhibition at 10 µM was at least 80%.

As a reminder, the inhibition is the drop in the measured response relative to a control, in per cent.
